Where a SMILES comes first, the peptide text is derived from it. The star is where a group is joined. Cbz = O=C(OCc1ccccc1)*; CH2F = FC*
Legend:
[1] = test system: microglia primary cultures; experiment: Cell survival by CellTiter-Glo, microglia primary cultures treated with Aβ42; type: cell-based; settings: Aβ42 200 nM, FIG. 10C
Experimental: (§1) The levels of TNFα mRNA were measured by quantitative PCR. B) Microglia primary cultures were incubated for 30 minutes with or without 10 μM Nec-1 prior to being treated with Aβ42 (200 nM). TNFα secretion was measured by ELISA. The data correspond to the mean±SD (N=3). C) Cell survival of microglia primary cultures treated with Aβ42 (200 nM) for indicated times with and without Nec1 was measured by CellTiter-Glo® assay. Error bars represent the mean of two different experiments.
(§2) The role played by RIP1 in the induction of TNFα production by amyloid-β in microglial cells was investigated.

[2] = test system: TNFα production in J774 cells; experiment: TNFα ELISA, J774 cells treated with zVAD.fmk (cell lysate and supernatant); type: cell-based, murine; settings: FIG. 1
Experimental: The role of RIP1 kinase in the regulation of TNFα induction was investigated. zVAD.fmk is a caspase inhibitor that induces TNFα expression in various cell types. Murine macrophage J774 cells were treated with 20 μM zVAD.fmk and 10 μM of necrostatin and RIP1 inhibitor Nec-1 for the various periods of time. Cell lysates were extracted and analyzed by TNFα specific ELISA. As depicted in FIG. 1, treatment with zVAD.fmk induces an upregulation in TNFα protein levels as measured by ELISA in the cell lysate.

[3] = test system: TNFα production in L929 cells; experiment: TNFα ELISA on cell lysates, L929 cells treated with SM-164; type: cell-based
Experimental: (§3) Smac mimetic compounds are IAP antagonists that induce the production of TNFα. Smac mimetic compounds induce the autoubiquitination and degradation of cIAP1. […] This cell death was inhibited by treatment with 10 μM Nec-1, or with 0.2 μg/ml or 1.0 μg/ml of TNFα neutralizing antibody (FIG. 2A).

[4] = test system: TNFα secretion by splenic macrophages; experiment: TNFα ELISA, splenic macrophages stimulated by CD154 and IFNγ; type: cell-based, C57BL/6 mouse; settings: 10 μM, pretreated 1 hour, then 24 hours 1 μg/ml CD154 and 100 U/ml IFNγ, FIG. 6
Experimental: To further explore the role of RIP1 kinase in mediating CD40 signaling, the effect of necrostatins on the production of TNFα by primary macrophages stimulated by CD154 was tested. Splenocytes isolated from a C57BL/6 mouse were cultured for 10 days in RPMI media with 10% FBS and 50 μM 2-mercaptoethanol. The attached cells were harvested as splenic macrophages. The macrophages were pretreated for 1 hour with 10 μ[…] Nec-1, 10 μM Nec-21, 10 μM Nec-29, or 1 μM Nec-12, then treated for 24 hours with 1 μg/ml recombinant CD154 (CD40L, R&D Systems) and/or 100 U/ml IFNγ as. TNFα secretion in the cell culture supernatant was analyzed by ELISA assay. As depicted in FIG. 6, the production of TNFα in splenic macrophages stimulated by CD154 in the presence of IFNγ was inhibited by Nec-1 as well as by the three other necrostatins tested, Nec-12, Nec-21 and Nec-29. These experiments indicate that RIP1 is involved in mediating TNFα production downstream of CD40 activation.

[5] = test system: L929 cells; experiment: Cell viability by ATP assay, L929 cells transfected with Traf2 siRNA; type: cell-based; settings: 10 μM, 48 hours, FIG. 3A
Experimental: (§4) In the TNFα signaling pathway, cIAP1, the target of Smac mimetic compounds, interacts closely with another protein, Traf2. L929 cells were transfected with Traf2 siRNA, treated with 10 μM Nec-1 or 1.0 μg/ml anti-TNFα antibody for 48 hours and cell viability measured by ATP assay. […] This death was also dependent on TNFα production, as it was inhibited by treatment with a TNFα neutralizing antibody or with knockdown of TNFR1 (FIGS. 3A and 3B). […] One such treatment is lipopolysaccharide (LPS), a component of the bacterial outer membrane. […] However, treatment of such cells with 10 μM Nec-1 has no effect on TNFα production in this case (FIG. 4).

[6] = test system: TNFα production in BV2 cells; experiment: TNFα mRNA by quantitative PCR, BV2 cells treated with Aβ42; type: cell-based; settings: 10 μM, 30 minutes before Aβ42 200 nM, FIG. 10A
Experimental: as §1, §2

[7] = test system: L929 cells; experiment: Cell viability by ATP assay, L929 cells treated with Smac mimetic SM-164; type: cell-based
Experimental: as §3

[8] = test system: TNFα secretion by microglia primary cultures; experiment: TNFα ELISA, microglia primary cultures treated with Aβ42; type: cell-based; settings: 10 μM, 30 minutes before Aβ42 200 nM, FIG. 10B
Experimental: as §1, §2

[9] = test system: L929 cells; experiment: Viability by ATP luminescence assay, L929 cells treated with CD40L and IFNγ; type: cell-based; settings: 10 μM, 24 hours, 0.2 μg/ml CD40L, 100 U/ml IFNγ, FIG. 13A
Experimental: (§5) A, L929 cells were treated with 0.2 μg/ml CD40L, 100 U/ml IFNγ, and/or 1 μg/ml TNFα neutralizing antibody and then treated with 10 μM Nec-1 (right bar) or a DMSO control (left bar) for 24 hours. Viability was measure by ATP luminescence assay. B, BV-2 cells were pretreated with 100 U/ml IFNγ for 20 hours, and treated with 0.1 μg/ml CD40L for 4 or 8 hours. TNFα secretion was measured by ELISA.
The role of RIP1 in CD40L induced TNFα production was investigated.

[10] = test system: L929 cells; experiment: Cell survival by CellTiter-Glo, L929 cells treated with CD154 and/or IFNγ; type: cell-based; settings: 10 μM, 32 hrs, CD154 0.1 μg/ml, FIG. 5
Experimental: To test the involvement of CD40 in necroptosis, L929 cells were treated with CD154 (0.1 μg/ml), IFNγ (100 U/ml) and/or TNFα neutralizing antibody (1 μg/ml) alone or in combination and with or without Nec-1 (10 μM) for 32 hrs. Following treatment, cell survival was determined by CellTiter-Glo (Promega). As depicted in FIG. 5, the death of L929 cells induced by either the presence of either CD154 alone or by the presence of both CD154 and IFNγ was inhibited by Nec-1. Thus, RIP1 kinase selectively mediates intracellular signaling downstream of CD40 stimulation

[11] = test system: TNFα production in J774 cells; experiment: TNFα ELISA, J774 cells treated with LPS; type: cell-based, murine; settings: 10 μM, J774 cells with 1 μg/ml LPS, cell lysate, FIG. 4
Experimental: as §4

[12] = test system: TNFα secretion by BV-2 cells; experiment: TNFα ELISA, BV-2 cells pretreated with IFNγ and treated with CD40L; type: cell-based; settings: 100 U/ml IFNγ 20 hours, 0.1 μg/ml CD40L 4 or 8 hours, FIG. 13B
Experimental: as §5
To confirm the role of RIP1 in CD40L-induced TNFα production, BV-2 cells were pretreated with IFNγ and CD40L to induce TNFα production and then exposed to Nec-1.

CN1C(=O)C(Cc2c[nH]c3ccccc23)NC1=S (stereo not shown) [Nec-1]
effect on survival of microglia primary cells [1]: minor protective effect
inhibition of zVAD.fmk-induced production of TNFα ([2]; 10 μM co-treatment with 20 μM zVAD.fmk): almost completely inhibits
inhibition of SM-164-induced TNFα production ([3]; co-treatment, FIG. 2B): completely inhibited
inhibition of TNFα production stimulated by CD154 in the presence of IFNγ [4]: inhibited
inhibition of cell death induced by loss of Traf2 [5]: completely inhibit
levels of TNFα (mRNA) after Aβ42 exposure [6]: reduced levels of TNFα
inhibition of SM-164-induced cell death ([7]; 10 μM, L929 cells with 100 nM SM-164, FIG. 2A): inhibited
levels of TNFα (secretion) after Aβ42 exposure [8]: reduced levels of TNFα
viability of cells cultured in IFNγ and CD40L [9]: largely restored
inhibition of cell death induced by CD154 alone [10]: inhibited
inhibition of cell death induced by both CD154 and IFNγ ([10]; IFNγ 100 U/ml): inhibited
effect on LPS-induced TNFα production [11]: no effect
inhibition of CD40L-induced TNFα production [12]: significantly inhibited

CN[C@@H](C)C(=O)N[C@H]1CCCC[C@H]2CC[C@@H](C(=O)N[C@@H](c3ccccc3)c3cn(CCCCc4ccc(CCCCn5cc([C@@H](NC(=O)[C@@H]6CC[C@@H]7CCCC[C@H](NC(=O)[C@H](C)NC)C(=O)N76)c6ccccc6)nn5)cc4)nn3)N2C1=O [SM-164, reference compound]
TNFα production after treatment ([3]; SM-164 treatment, ELISA on cell lysates): induced an increase
cell death induced by treatment ([7]; 100 nM, L929 cells, ATP assay): undergo cell death

COC(=O)C[C@H](NC(=O)[C@H](C)NC(=O)[C@@H](NC(=O)OCc1ccccc1)C(C)C)C(=O)CF [zVAD.fmk, reference compound] (Cbz-Val-Ala-Asp(OMe)-CH2F)
TNFα protein levels after treatment ([2]; 20 μM zVAD.fmk, ELISA in cell lysate): upregulation
